Measurements published in paper PMC6792352, “Limited Chemical Structural Diversity Found to Modulate Thyroid Hormone Receptor in the Tox21 Chemical Library” (Environmental Health Perspectives, 2019).
Structures can show the parent of a compound that is named as a salt. Where two headings read alike, the source gives them in different places.

Test system: GH3-TRE-Luc cell line
Conditions: read-out: AC50 (uM) modified / 1000, viability, 1 nM T3 present, 24 h

`O=c1c(O)c(-c2ccc(O)c(O)c2)oc2cc(O)cc(O)c12` [Quercetin] gave a CC50 (Tox21_110001=Tox21_202308) of 40.5 µM and a CC50 (Tox21_110001=Tox21_300285) of 77.2 µM.
Compound `CCCC[n+]1ccc(C)cc1` [1-Butyl-4-methylpyridinium chloride] has a CC50 (Tox21_110001=Tox21_202685) of 39.2 µM.
Work on `CCCCCCCC[n+]1ccn(C)c1` [1-Methyl-3-octylimidazolium trifluoromethanesulfonate] yielded a CC50 (Tox21_110001=Tox21_200708) of 75.9 µM.
Compound `CC1=CC(=C(c2ccc(N)cc2)c2ccc(N)cc2)C=CC1=N` [C.I. Basic Violet 14] has a CC50 (Tox21_110001=Tox21_112288) of 15.1 µM and a CC50 (Tox21_110001=Tox21_202790) of 5.54 µM.
`CC(=O)Nc1ccc(C(=O)CCl)cc1` [4'-(Chloroacetyl)acetanilide] gave a CC50 (Tox21_110001=Tox21_302954) of 16.5 µM.
For `CCCCCCCCCCCCCC[P+](CCCCCC)(CCCCCC)CCCCCC` [Trihexyltetradecylphosphonium hexafluorophosphate], the CC50 (Tox21_110001=Tox21_200750) was 5.33 µM.
`O=C(c1ccc(OCCN2CCCCC2)cc1)c1c(-c2ccc(O)cc2)sc2cc(O)ccc12` [Raloxifene hydrochloride] gave a CC50 (Tox21_110001=Tox21_110255) of 5.6 µM and a CC50 (Tox21_110001=Tox21_302369) of 2.98 µM.
`CCCCCCCCCCCCCC[P+](CCCCCC)(CCCCCC)CCCCCC` [Trihexyltetradecylphosphonium bromide] was tested, and the CC50 (Tox21_110001=Tox21_200809) was 5.4 µM.
In the case of `CCCCCCCC[n+]1ccn(C)c1` [1-Methyl-3-octylimidazolium tetrafluoroborate], the CC50 (Tox21_110001=Tox21_200695) is reported as 44.3 µM.
`C[C@]12CC[C@@H]3c4ccc(O)cc4C[C@@H](CCCCCCCCC[S+]([O-])CCCC(F)(F)C(F)(F)F)[C@H]3[C@@H]1CC[C@@H]2O` (stereo partly drawn) [Fulvestrant] was tested, and the CC50 (Tox21_110001=Tox21_110939) was 0.00438 µM, the CC50 (Tox21_110001=Tox21_202604) was 0.00683 µM and the CC50 (Tox21_110001=Tox21_303656) was 2.26 µM.
In the case of `Oc1cccc2cccnc12` [8-Hydroxyquinoline sulfate], the CC50 (Tox21_110001=Tox21_303537) is reported as 1.43 µM.
Compound `CCCCCCCCCCCCCCn1cc[n+](C)c1` [1-Methyl-3-tetradecylimidazolium chloride] has a CC50 (Tox21_110001=Tox21_202660) of 8.43 µM.
In the case of `N#Cc1c(Cl)c(Cl)c(Cl)c(C#N)c1Cl` [Chlorothalonil], the CC50 (Tox21_110001=Tox21_201687) is reported as 0.523 µM and the CC50 (Tox21_110001=Tox21_300862) is reported as 0.188 µM.
`O=C1Cc2cc(CCN3CCN(c4nsc5ccccc45)CC3)c(Cl)cc2N1` [Ziprasidone] was tested, and the CC50 (Tox21_110001=Tox21_113525) was 15.3 µM.
For `COc1cccc2c1C(=O)c1c(O)c3c(c(O)c1C2=O)C[C@@](O)(C(=O)CO)C[C@@H]3O[C@H]1C[C@H](N)[C@H](O)[C@H](C)O1` [Adriamycin hydrochloride], the CC50 (Tox21_110001=Tox21_112061) was 1.54 µM and the CC50 (Tox21_110001=Tox21_202483) was 0.253 µM.
In the case of `Cc1cc(-c2ccc(/N=N/c3ccc4c(S(=O)(=O)O)cc(S(=O)(=O)O)c(N)c4c3O)c(C)c2)ccc1/N=N/c1ccc2c(S(=O)(=O)O)cc(S(=O)(=O)O)c(N)c2c1O` [C.I. Direct Blue 53], the CC50 (Tox21_110001=Tox21_113237) is reported as 21.8 µM.
In the case of `[H]/N=C(\N/C(=N/[H])NCCCCCCNC(=N)NC(=N)Nc1ccc(Cl)cc1)Nc1ccc(Cl)cc1` [Chlorhexidine diacetate], the CC50 (Tox21_110001=Tox21_302363) is reported as 5.83 µM.
With `CO[C@H]1C[C@@H]2CC[C@@H](C)[C@@](O)(O2)C(=O)C(=O)N2CCCC[C@H]2C(=O)O[C@H]([C@H](C)C[C@@H]2CC[C@@H](O)[C@H](OC)C2)CC(=O)[C@H](C)/C=C(\C)[C@@H](O)[C@@H](OC)C(=O)[C@H](C)C[C@H](C)/C=C/C=C/C=C/1C` [Sirolimus] the CC50 (Tox21_110001=Tox21_110870) was 0.00123 µM and the CC50 (Tox21_110001=Tox21_112750) was 0.00263 µM.
In the case of `C#C[C@]1(O)CC[C@H]2[C@@H]3CCC4=CCCC[C@@H]4[C@H]3CC[C@@]21C` [Lynestrenol], the CC50 (Tox21_110001=Tox21_110319) is reported as 17.1 µM and the CC50 (Tox21_110001=Tox21_301969) is reported as 46.9 µM.
For `COC(=O)C1=C(C)NC(C)=C(C(=O)OCCN(C)Cc2ccccc2)C1c1cccc([N+](=O)[O-])c1` (stereo not drawn) [Nicardipine], the CC50 (Tox21_110001=Tox21_110211) was 7.48 µM and the CC50 (Tox21_110001=Tox21_301832) was 22.2 µM.
`CCCOC(=O)c1cc(O)c(O)c(O)c1` [Propyl gallate] gave a CC50 (Tox21_110001=Tox21_113531) of 32.9 µM, a CC50 (Tox21_110001=Tox21_202286) of 61.7 µM and a CC50 (Tox21_110001=Tox21_300060) of 72.8 µM.
Compound `O=C1CN(/N=C/c2ccc(-c3ccc([N+](=O)[O-])cc3)o2)C(O)=N1` [Dantrolene sodium] has a CC50 (Tox21_110001=Tox21_112013) of 11.2 µM and a CC50 (Tox21_110001=Tox21_301997) of 48.2 µM.
Compound `CCCCCCCCCCCCn1cc[n+](C)c1` [1-Dodecyl-3-methylimidazolium hexafluorophosphate] has a CC50 (Tox21_110001=Tox21_200596) of 4.11 µM.
In the case of `CN(Cc1ccc(C(C)(C)C)cc1)Cc1cccc2ccccc12` [Butenafine hydrochloride], the CC50 (Tox21_110001=Tox21_112918) is reported as 28.6 µM.
With `CC/C(=C(\c1ccccc1)c1ccc(OCCN(C)C)cc1)c1ccccc1` [Tamoxifen citrate] the CC50 (Tox21_110001=Tox21_110938) was 5.89 µM, the CC50 (Tox21_110001=Tox21_202070) was 10.9 µM and the CC50 (Tox21_110001=Tox21_300274) was 4.69 µM.
`COc1ccc(N)cc1N` [2,4-Diaminoanisole sulfate hydrate] was tested, and the CC50 (Tox21_110001=Tox21_302700) was 48.9 µM.
`O=C1OC(c2ccc(O)cc2)(c2ccc(O)cc2)c2ccccc21` [Phenolphthalein] gave a CC50 (Tox21_110001=Tox21_110838) of 16.8 µM, a CC50 (Tox21_110001=Tox21_202219) of 25.4 µM and a CC50 (Tox21_110001=Tox21_300282) of 49.8 µM.
`Cc1c(N)nc([C@H](CC(N)=O)NC[C@H](N)C(N)=O)nc1C(=O)N[C@H](C(=O)N[C@H](C)[C@@H](O)[C@H](C)C(=O)N[C@H](C(=O)NCCc1nc(-c2nc(C(=O)NCCC[S+](C)C)cs2)cs1)[C@@H](C)O)[C@@H](O[C@@H]1O[C@@H](CO)[C@@H](O)[C@H](O)[C@@H]1O[C@H]1O[C@H](CO)[C@@H](O)[C@H](OC(N)=O)[C@@H]1O)c1c[nH]cn1` [Bleomycin sulfate] gave a CC50 (Tox21_110001=Tox21_113599) of 1.85 µM.
`COc1cc(/C=C/C(=O)CC(=O)/C=C/c2ccc(O)c(OC)c2)ccc1O` [Curcumin] was tested, and the CC50 (Tox21_110001=Tox21_110803) was 22.1 µM and the CC50 (Tox21_110001=Tox21_201116) was 26.5 µM.
With `CCN(CC)C(=S)S` [Sodium diethyldithiocarbamate trihydrate] the CC50 (Tox21_110001=Tox21_302812) was 8.88 µM.
